Test results: ChEMBL document CHEMBL1201862, “PubChem BioAssay data set” (2004)
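Exposure lasted 48 hours, with cells grown in 96-well plates and compounds tested at five concentrations. GI50 marks 50% less growth.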 Calls of active or inactive are those of the source. Cut-off read from the data, not from the text of the source: active = GI50 up to about 1.1 µM and inactive = higher.

How the values were obtained:
Assay in all cases: NCI-60 cell line screen, 48 h
M14 = tested on: M14
NCI-H23 = tested on: NCI-H23
MDA-MB-435 = tested on: MDA-MB-435
SNB-19 = tested on: SNB-19
HOP-92 = tested on: HOP-92
Hs-578T = tested on: Hs-578T
ACHN = tested on: ACHN
SN12C = tested on: SN12C
SK-MEL-28 = tested on: SK-MEL-28
CAKI-1 = tested on: CAKI-1
SF-268 = tested on: SF-268
A549 = tested on: A549
HCC 2998 = tested on: HCC 2998
NCI-H460 = tested on: NCI-H460
UACC-257 = tested on: UACC-257
OVCAR-8 = tested on: OVCAR-8
A498 = tested on: A498
HL-60 = tested on: HL-60
SK-MEL-5 = tested on: SK-MEL-5
UACC-62 = tested on: UACC-62
EKVX = tested on: EKVX
COLO 205 = tested on: COLO 205
IGROV-1 = tested on: IGROV-1
SNB-75 = tested on: SNB-75
MDA-N = tested on: MDA-N
MCF7 = tested on: MCF7
TK-10 = tested on: TK-10
RPMI-8226 = tested on: RPMI-8226
786-0 = tested on: 786-0
HT-29 = tested on: HT-29
OVCAR-5 = tested on: OVCAR-5
K562 = tested on: K562
HCT-116 = tested on: HCT-116
HCT-15 = tested on: HCT-15
BT-549 = tested on: BT-549
DU-145 = tested on: DU-145
SF-539 = tested on: SF-539
NCI/ADR-RES = tested on: NCI/ADR-RES
U-251 = tested on: U-251
NCI-H226 = tested on: NCI-H226
SK-OV-3 = tested on: SK-OV-3
LOX IMVI = tested on: LOX IMVI
MOLT-4 = tested on: MOLT-4
UO-31 = tested on: UO-31
KM12 = tested on: KM12
HOP-62 = tested on: HOP-62
OVCAR-4 = tested on: OVCAR-4
NCI-H522 = tested on: NCI-H522
SF-295 = tested on: SF-295
SR = tested on: SR
SW-620 = tested on: SW-620
OVCAR-3 = tested on: OVCAR-3
SK-MEL-2 = tested on: SK-MEL-2
RXF 393 = tested on: RXF 393
MDA-MB-231 = tested on: MDA-MB-231
CCRF-CEM = tested on: CCRF-CEM
Malme-3M = tested on: Malme-3M
PC-3 = tested on: PC-3
T47D = tested on: T47D

Structure (SMILES): CCOc1cc2c(cc1O)/C(=N\O)C[C@@H]1[C@@H]2CC[C@]2(C)[C@@H](O)CC[C@@H]12
- GI50 (M14): 0.0144 µM (active)
- GI50 (NCI-H23): 0.0455 µM (active)
- GI50 (MDA-MB-435): 0.011 µM (active)
- GI50 (SNB-19): < 0.01 µM (active)
- GI50 (HOP-92): 0.00782 µM (active)
- GI50 (Hs-578T): < 0.0221 µM (active)
- GI50 (ACHN): 0.126 µM (active)
- GI50 (SN12C): < 0.0216 µM (active)
- GI50 (SK-MEL-28): < 0.0276 µM (active)
- GI50 (CAKI-1): < 0.0235 µM (active)
- GI50 (SF-268): < 0.031 µM (active)
- GI50 (A549): 0.0521 µM (active)
- GI50 (HCC 2998): 2.72 µM (inactive)
- GI50 (NCI-H460): < 0.0198 µM (active)
- GI50 (UACC-257): 33.3 µM (inactive)
- GI50 (OVCAR-8): < 0.028 µM (active)
- GI50 (A498): < 0.0272 µM (active)
- GI50 (HL-60): < 0.0155 µM (active)
- GI50 (SK-MEL-5): 0.01 µM (active)
- GI50 (UACC-62): < 0.0191 µM (active)
- GI50 (EKVX): 55.2 µM (inactive)
- GI50 (COLO 205): 8.79 µM (inactive)
- GI50 (IGROV-1): 0.628 µM (active)
- GI50 (SNB-75): < 0.01 µM (active)
- GI50 (MDA-N): 0.0123 µM (active)
- GI50 (MCF7): < 0.0195 µM (active)
- GI50 (TK-10): 29.6 µM (inactive)
- GI50 (RPMI-8226): 0.0238 µM (active)
- GI50 (786-0): < 0.0208 µM (active)
- GI50 (HT-29): 6.71 µM (inactive)
- GI50 (OVCAR-5): 5.85 µM (inactive)
- GI50 (K562): < 0.0173 µM (active)
- GI50 (HCT-116): < 0.0211 µM (active)
- GI50 (HCT-15): < 0.0199 µM
- GI50 (BT-549): 0.0371 µM (active)
- GI50 (DU-145): < 0.0197 µM (active)
- GI50 (SF-539): 0.00256 µM (active)
- GI50 (NCI/ADR-RES): < 0.0276 µM (active)
- GI50 (U-251): 0.018 µM (active)
- GI50 (NCI-H226): 0.0817 µM (active)
- GI50 (SK-OV-3): 0.0374 µM (active)
- GI50 (LOX IMVI): < 0.0363 µM (active)
- GI50 (MOLT-4): < 0.023 µM (active)
- GI50 (UO-31): 0.147 µM (active)
- GI50 (KM12): 0.168 µM (active)
- GI50 (HOP-62): < 0.0201 µM (active)
- GI50 (OVCAR-4): 6.34 µM (inactive)
- GI50 (NCI-H522): < 0.0182 µM (active)

Structure (SMILES): Cc1ccc(-c2n[nH]c(=O)n2/N=C\c2ccc([N+](=O)[O-])cc2)cc1
- GI50 (M14): 58.2 µM (inactive)
- GI50 (NCI-H23): > 100 µM (inactive)
- GI50 (MDA-MB-435): 35 µM (inactive)
- GI50 (SNB-19): > 100 µM (inactive)
- GI50 (HOP-92): > 74.3 µM (inactive)
- GI50 (Hs-578T): 41.1 µM (inactive)
- GI50 (ACHN): > 80.5 µM (inactive)
- GI50 (SF-295): > 100 µM (inactive)
- GI50 (SN12C): > 100 µM (inactive)
- GI50 (SK-MEL-28): > 100 µM (inactive)
- GI50 (CAKI-1): > 100 µM (inactive)
- GI50 (SR): 31.8 µM (inactive)
- GI50 (SF-268): > 100 µM (inactive)
- GI50 (SW-620): > 71.9 µM (inactive)
- GI50 (A549): > 100 µM (inactive)
- GI50 (HCC 2998): > 100 µM (inactive)
- GI50 (NCI-H460): > 100 µM (inactive)
- GI50 (OVCAR-3): > 100 µM (inactive)
- GI50 (UACC-257): > 100 µM (inactive)
- GI50 (OVCAR-8): > 100 µM (inactive)
- GI50 (A498): > 100 µM (inactive)
- GI50 (HL-60): > 35.7 µM (inactive)
- GI50 (SK-MEL-2): > 100 µM (inactive)
- GI50 (SK-MEL-5): 92.9 µM (inactive)
- GI50 (UACC-62): 60.1 µM (inactive)
- GI50 (EKVX): > 100 µM (inactive)
- GI50 (COLO 205): > 100 µM (inactive)
- GI50 (RXF 393): > 73.8 µM (inactive)
- GI50 (MDA-MB-231): 9.75 µM (inactive)
- GI50 (IGROV-1): > 100 µM (inactive)
- GI50 (CCRF-CEM): > 32.1 µM (inactive)
- GI50 (SNB-75): 97.5 µM (inactive)
- GI50 (MCF7): 99.5 µM (inactive)
- GI50 (TK-10): > 100 µM (inactive)
- GI50 (RPMI-8226): 76.9 µM (inactive)
- GI50 (786-0): > 100 µM (inactive)
- GI50 (HT-29): > 65.6 µM (inactive)
- GI50 (OVCAR-5): > 100 µM (inactive)
- GI50 (K562): 32 µM (inactive)
- GI50 (HCT-116): 72.6 µM (inactive)
- GI50 (HCT-15): 86.7 µM
- GI50 (BT-549): 54.1 µM (inactive)
- GI50 (DU-145): > 100 µM (inactive)
- GI50 (SF-539): > 100 µM (inactive)
- GI50 (NCI/ADR-RES): > 100 µM (inactive)
- GI50 (Malme-3M): > 100 µM (inactive)
- GI50 (U-251): > 100 µM (inactive)
- GI50 (NCI-H226): > 100 µM (inactive)
- GI50 (SK-OV-3): > 100 µM (inactive)
- GI50 (LOX IMVI): > 100 µM (inactive)
- GI50 (PC-3): > 100 µM (inactive)
- GI50 (MOLT-4): > 42.2 µM (inactive)
- GI50 (UO-31): > 93.3 µM (inactive)
- GI50 (T47D): > 91.8 µM (inactive)
- GI50 (KM12): > 100 µM (inactive)
- GI50 (HOP-62): 52.4 µM (inactive)
- GI50 (OVCAR-4): > 100 µM (inactive)
- GI50 (NCI-H522): > 100 µM (inactive)
